Columns and labels:
[1] = system: 297L1 cell-derived pancreatic progenitor cells (passage number: 7); settings: Stem Cell Research 2012, 8, 274-284; cited from earlier work
[2] = system: 297L1 cell-derived pancreatic progenitor cells (passage number: 7); test: Differentiation induction of insulin-producing cells from proliferated pancreatic progenitor cells, NKX6.1/INSULIN immunofluorescence staining; type: cell-based, human; settings: cultured 9 days in IMEM-option Zn++ medium with 1% B-27; FIG. 9
Description: Study was made on whether the proliferated and repetitively passaged pancreatic progenitor cells would have the ability to differentiate into INSULIN-producing cells. The cells used were 297L1 cell-derived pancreatic progenitor cells (passage number: 7). The pancreatic progenitor cells brought to a single cell state using Accutase were inoculated at 6×10^4 cells/well to a 96-well plate coated with Matrigel. The culture solution used was IMEM-option Zn^++ medium (containing 1% B-27®) supplemented with XAV939 (1 μM), Y27632 (10 μM), and bFGF (50 ng/ml). The cells were cultured for 2 days to render the cell density confluent. Then, the cells were washed with IMEM-option Zn^++ medium and then cultured for 9 days using IMEM-option Zn^++ medium (containing 1% B-27®) supplemented with ALKS inhibitor II. […] 4% PFA was added to the cells thus cultured, and the cells were fixed at room temperature for 30 minutes. The cells were further reacted with an anti-NKX6.1 antibody and an anti-INSULIN antibody (DAKO, A0564) as primary antibodies and further with an Alexa 488-labeled secondary antibody or an Alexa 568-labeled secondary antibody as a secondary antibody, sequentially, and then observed under a fluorescence microscope.

[3] = system: PDX1-positive cells differentiation-induced from human iPS cell line 253G1; test: Induction of pancreatic progenitor cells from PDX1-positive cells (253G1 iPS-derived), anti-PDX1/anti-NKX6.1 immunofluorescence staining; type: cell-based; settings: cultured 7 days, IMEM-option Zn++ medium with 1% B-27; XAV939 1 μM and/or bFGF 100 ng/ml; FIG. 1
Method: The PDX1-positive cells differentiation-induced on a Matrigel-coated dish according to Reference Example 1 were washed with IMEM-option Zn^++ medium and then further cultured for 7 days in IMEM-option Zn^++ medium (containing 1% B-27®) supplemented with XAV939 (1 μM) and/or bFGF (100 ng/ml) (PeproTech, Inc.).
In order to examine the expression of PDX1 and NKX6.1 proteins in the cells thus cultured, immunofluorescence staining was carried out using an anti-PDX1 antibody and an anti-NKX6.1 antibody. […] Then, the cells were reacted with an anti-PDX1 antibody (AF2419, R&D Systems, Inc.) and an anti-NKX6.1 antibody (55F55A12-c, Developmental Studies Hybridoma Bank) as primary antibodies and further with an Alexa 488-labeled secondary antibody or an Alexa 568-labeled secondary antibody (both from Life Technologies Corp.) as a secondary antibody, sequentially, and then observed under a fluorescence microscope.
The PDX1-positive cells differentiation-induced on a Matrigel-coated dish according to Reference Example 1 were washed with IMEM-option Zn^++ medium. […] The cells thus cultured were subjected to the immunofluorescence staining described in Example 1 and observed under a fluorescence microscope.

| Compound | induction of INSULIN-positive cells [1] | appearance of INSULIN-positive cells [2] | cells expressing PDX1 and NKX6.1 (immunofluorescence staining) [3] |
| --- | --- | --- | --- |
| Cc1cccc(-c2[nH]ncc2-c2ccc3ncccc3n2)n1 [ALKS inhibitor II] | known to induce INSULIN-positive cells | INSULIN-positive cells appeared |  |
| O=c1[nH]c(-c2ccc(C(F)(F)F)cc2)nc2c1CSCC2 [XAV939, 2-(4-trifluoromethylphenyl)-7,8-dihydro-5H-thiopyrano[4,3-d]pyrimidin-4(3H)-one] |  |  | cells coexpressing PDX1 and NKX6.1 were few in number |
| bFGF: FGF signal transduction activator, bFGF (FGF2) |  |  | cells coexpressing PDX1 and NKX6.1 were few in number |

— patent publication US10655105B2, “Method for proliferation of pancreatic progenitor cells” (Takeda Pharmaceutical Company Limited, priority 2014, dated 2020)
